ChEMBL document CHEMBL3885861, “Open TG-GATES”

Species on record: Rattus norvegicus
Experiment: Open TG-GATES - Regimen: Daily Repeat
Format: toxicity, organism-based, Sprague-Dawley
Design: regimen Daily Repeat, gender Male, age 6 weeks
Settings: in vivo, po, route gavage; for APTT / Bas / Eos / Fbg / Hb / Ht / Lym / MCH / MCHC / MCV / Mono / Neu / PT / Plat / RBC / Ret / WBC: tissue Blood; for KIDNEY_L / KIDNEY_R / KIDNEY_TOTAL: tissue Kidney; for LIVER: tissue Liver; for ALP / ALT / BUN / CRE / Ca / DBIL / GLC / K / LDH / Na / PL / RALB / TBIL / TC / TG / TP / gamma-GTP / AST: tissue Plasma
[1] = 60 mg/kg, 72 h, dose level Middle, time 3 day
[2] = 60 mg/kg, […], dose level Middle, time 7 day
[3] = 60 mg/kg, […], dose level Middle, time 14 day
[4] = 60 mg/kg, […], dose level Middle, time 28 day
[5] = 200 mg/kg, 72 h, dose level High, time 3 day
[6] = 200 mg/kg, […], dose level High, time 7 day
[7] = 200 mg/kg, […], dose level High, time 14 day
[8] = 200 mg/kg, […], dose level High, time 28 day

## CCCCc1oc2ccccc2c1C(=O)c1cc(I)c(OCCN(CC)CC)c(I)c1 [AMIODARONE]
[1]
  TERMINAL_BW: 226.1 g
  APTT: 18.2 s
  Bas: 0%
  Eos: 1.2%
  Fbg: 225.8 mg/dL
  Hb: 13.5 g/dL
  Ht: 39.6%
  Lym: 79.2%
  MCH: 21.1 pg
  MCHC: 34.1%
  MCV: 62.1 fL
  Mono: 2.6%
  Neu: 15.8%
  PT: 12.8 s
  Plat: 127.1 x10_4/uL
  RBC: 637.8 x10_4/ul
  Ret: 5.5%
  WBC: 99.3 x10_2/uL
  KIDNEY_L: 1 g
  KIDNEY_R: 1 g
  KIDNEY_TOTAL: 2.1 g
  LIVER: 11 g
  ALP: 1120.2 IU/L
  ALT: 37.8 IU/L
  BUN: 16 mg/dL
  CRE: 0.3 mg/dL
  Ca: 10.7 mg/dL
  DBIL: 0.096 mg/dL
  GLC: 196.6 mg/dL
  K: 3.8 meq/L
  LDH: 194.6 IU/L
  Na: 140.8 meq/L
  PL: 147 mg/dL
  RALB: 3.4 g/dL
  TBIL: 0.1 mg/dL
  TC: 73.8 mg/dL
  TG: 101.8 mg/dL
  TP: 5.5 g/dL
  gamma-GTP: 1 IU/L
[2]
  TERMINAL_BW: 259.8 g
  APTT: 17.9 s
  Bas: 0%
  Eos: 1%
  Fbg: 216.8 mg/dL
  Hb: 13 g/dL
  Lym: 76.2%
  MCH: 20.9 pg
  MCHC: 34.1%
  Mono: 3.2%
  Neu: 18.6%
  PT: 12.3 s
  Plat: 132.6 x10_4/uL
  RBC: 622.6 x10_4/ul
  Ret: 5.4%
  WBC: 103.2 x10_2/uL
  KIDNEY_L: 1.2 g
  KIDNEY_R: 1.1 g
  KIDNEY_TOTAL: 2.3 g
  ALP: 981 IU/L
  ALT: 34.8 IU/L
  AST: 60 IU/L
  BUN: 17.4 mg/dL
  CRE: 0.3 mg/dL
  Ca: 10.5 mg/dL
  DBIL: 0.1 mg/dL
  GLC: 208 mg/dL
  K: 4 meq/L
  LDH: 174.8 IU/L
  Na: 140.2 meq/L
  PL: 166.8 mg/dL
  RALB: 3.3 g/dL
  TBIL: 0.2 mg/dL
  TC: 90.8 mg/dL
  TG: 98.6 mg/dL
  TP: 5.5 g/dL
  gamma-GTP: 0.8 IU/L
[3]
  TERMINAL_BW: 302.6 g
  APTT: 20.8 s
  Bas: 0%
  Eos: 0.4%
  Fbg: 214.4 mg/dL
  Hb: 14.4 g/dL
  Ht: 41.1%
  Lym: 79%
  MCH: 20.9 pg
  MCHC: 35%
  MCV: 59.7 fL
  Mono: 2.2%
  Neu: 17.4%
  Plat: 115.4 x10_4/uL
  RBC: 688.2 x10_4/ul
  Ret: 4.3%
  WBC: 115.1 x10_2/uL
  KIDNEY_L: 1.2 g
  KIDNEY_R: 1.2 g
  KIDNEY_TOTAL: 2.3 g
  LIVER: 13.8 g
  ALP: 996.2 IU/L
  ALT: 41.4 IU/L
  AST: 64.6 IU/L
  BUN: 16.6 mg/dL
  CRE: 0.4 mg/dL
  Ca: 10.6 mg/dL
  DBIL: 0.086 mg/dL
  GLC: 224.6 mg/dL
  K: 3.5 meq/L
  LDH: 174.6 IU/L
  Na: 140.4 meq/L
  PL: 171.6 mg/dL
  RALB: 3.4 g/dL
  TBIL: 0.1 mg/dL
  TC: 90.4 mg/dL
  TG: 102 mg/dL
  TP: 5.9 g/dL
  gamma-GTP: 1.8 IU/L
[4]
  TERMINAL_BW: 385.9 g
  APTT: 20.6 s
  Bas: 0%
  Eos: 1%
  Fbg: 218.6 mg/dL
  Ht: 42.1%
  Lym: 78.2%
  MCH: 19.7 pg
  MCHC: 35%
  MCV: 56.3 fL
  Mono: 2.6%
  Neu: 17%
  Plat: 111.2 x10_4/uL
  RBC: 748.8 x10_4/ul
  Ret: 2.8%
  WBC: 115.2 x10_2/uL
  KIDNEY_L: 1.3 g
  KIDNEY_R: 1.3 g
  KIDNEY_TOTAL: 2.7 g
  LIVER: 16.9 g
  ALP: 803.2 IU/L
  ALT: 34.4 IU/L
  AST: 56.4 IU/L
  BUN: 18 mg/dL
  CRE: 0.5 mg/dL
  Ca: 10.4 mg/dL
  DBIL: 0.098 mg/dL
  GLC: 192.6 mg/dL
  K: 3.7 meq/L
  LDH: 152.6 IU/L
  Na: 141 meq/L
  PL: 167.2 mg/dL
  RALB: 3.3 g/dL
  TBIL: 0.2 mg/dL
  TC: 86.6 mg/dL
  TG: 120 mg/dL
  TP: 6 g/dL
  gamma-GTP: 1.6 IU/L
[5]
  TERMINAL_BW: 204.2 g
  APTT: 27.3 s
  Bas: 0%
  Eos: 1.2%
  Fbg: 214.6 mg/dL
  Hb: 14.1 g/dL
  Ht: 40.9%
  Lym: 84.6%
  MCH: 20.9 pg
  MCHC: 34.4%
  MCV: 60.8 fL
  Mono: 3.2%
  Neu: 9.2%
  PT: 15.9 s
  Plat: 122.1 x10_4/uL
  RBC: 672.8 x10_4/ul
  Ret: 3.5%
  WBC: 70.5 x10_2/uL
  KIDNEY_L: 0.9 g
  KIDNEY_R: 0.9 g
  KIDNEY_TOTAL: 1.8 g
  LIVER: 9 g
  ALP: 1623.2 IU/L
  BUN: 14.2 mg/dL
  CRE: 0.3 mg/dL
  Ca: 10 mg/dL
  DBIL: 0.062 mg/dL
  GLC: 193.2 mg/dL
  K: 3.6 meq/L
  LDH: 222.2 IU/L
  Na: 140.2 meq/L
  PL: 181.6 mg/dL
  RALB: 3.4 g/dL
  TBIL: 0.1 mg/dL
  TC: 135 mg/dL
  TG: 33.2 mg/dL
  TP: 5.7 g/dL
  gamma-GTP: 0.8 IU/L
[6]
  TERMINAL_BW: 210.1 g
  APTT: 33.7 s
  Bas: 0%
  Eos: 0.8%
  Fbg: 202.2 mg/dL
  Hb: 14.6 g/dL
  Ht: 41.9%
  Lym: 82.8%
  MCH: 21.2 pg
  MCHC: 34.9%
  MCV: 60.7 fL
  Mono: 2.6%
  Neu: 13.2%
  PT: 17.5 s
  Plat: 127 x10_4/uL
  RBC: 690.2 x10_4/ul
  Ret: 1.4%
  WBC: 119 x10_2/uL
  KIDNEY_L: 0.9 g
  KIDNEY_R: 0.9 g
  KIDNEY_TOTAL: 1.9 g
  LIVER: 9.6 g
  ALP: 1316.2 IU/L
  ALT: 31 IU/L
  AST: 56.4 IU/L
  BUN: 13.6 mg/dL
  CRE: 0.4 mg/dL
  Ca: 10 mg/dL
  DBIL: 0.068 mg/dL
  GLC: 184.4 mg/dL
  K: 4 meq/L
  LDH: 215.6 IU/L
  Na: 139.2 meq/L
  PL: 182.8 mg/dL
  RALB: 3.4 g/dL
  TBIL: 0.1 mg/dL
  TC: 144.8 mg/dL
  TG: 24.6 mg/dL
  TP: 5.8 g/dL
  gamma-GTP: 1.2 IU/L
[7]
  TERMINAL_BW: 194.8 g
  APTT: 26.9 s
  Bas: 0%
  Eos: 0.8%
  Fbg: 180.2 mg/dL
  Hb: 16 g/dL
  Ht: 44.7%
  Lym: 68%
  MCH: 20 pg
  MCHC: 35.9%
  MCV: 55.6 fL
  Mono: 1.6%
  Neu: 29.6%
  PT: 15 s
  Plat: 109.5 x10_4/uL
  RBC: 803.6 x10_4/ul
  Ret: 0.8%
  WBC: 77.9 x10_2/uL
  KIDNEY_L: 0.9 g
  KIDNEY_R: 0.9 g
  KIDNEY_TOTAL: 1.7 g
  LIVER: 9.1 g
  ALP: 1457.8 IU/L
  ALT: 44.8 IU/L
  AST: 59.8 IU/L
  BUN: 16.6 mg/dL
  CRE: 0.5 mg/dL
  Ca: 9.6 mg/dL
  DBIL: 0.064 mg/dL
  GLC: 200.8 mg/dL
  K: 3.6 meq/L
  LDH: 176.6 IU/L
  Na: 139.4 meq/L
  PL: 190.4 mg/dL
  RALB: 3.4 g/dL
  TBIL: 0.1 mg/dL
  TC: 163.4 mg/dL
  TP: 5.7 g/dL
  gamma-GTP: 1.6 IU/L
[8]
  TERMINAL_BW: 228 g
  APTT: 27.4 s
  Bas: 0%
  Eos: 0.8%
  Fbg: 215.8 mg/dL
  Hb: 15.6 g/dL
  Ht: 42.8%
  Lym: 64%
  MCH: 19 pg
  MCHC: 36.4%
  MCV: 52.2 fL
  Mono: 2%
  Neu: 32%
  PT: 17 s
  Plat: 159.1 x10_4/uL
  RBC: 819 x10_4/ul
  Ret: 2.1%
  WBC: 96 x10_2/uL
  KIDNEY_L: 0.9 g
  KIDNEY_R: 1 g
  KIDNEY_TOTAL: 1.9 g
  ALP: 1315 IU/L
  ALT: 39.8 IU/L
  AST: 82 IU/L
  BUN: 15.5 mg/dL
  CRE: 0.5 mg/dL
  Ca: 9.4 mg/dL
  DBIL: 0.065 mg/dL
  GLC: 169 mg/dL
  K: 3.9 meq/L
  LDH: 184 IU/L
  Na: 139.8 meq/L
  PL: 177 mg/dL
  RALB: 3.3 g/dL
  TBIL: 0.1 mg/dL
  TC: 127.5 mg/dL
  TG: 26.5 mg/dL
  TP: 5.8 g/dL
  gamma-GTP: 1.2 IU/L
